Laboratory results published in patent US12091411B2, “IRAK degraders and uses thereof” (Kymera Therapeutics, Inc., priority 2022, dated 2024).
Read-outs that look alike come from different tables or passages of the source.

Target: T1, IRAK4 (Homo sapiens, UniProt Q9NWZ3)
T1 construct: Degradation of IRAK4 in OCI-LY10 was quantitatively measured using Meso Scale Discovery technology; endogenous in cells; host or cells: OCI-LY10
T1 sequence (Q9NWZ3 1-460): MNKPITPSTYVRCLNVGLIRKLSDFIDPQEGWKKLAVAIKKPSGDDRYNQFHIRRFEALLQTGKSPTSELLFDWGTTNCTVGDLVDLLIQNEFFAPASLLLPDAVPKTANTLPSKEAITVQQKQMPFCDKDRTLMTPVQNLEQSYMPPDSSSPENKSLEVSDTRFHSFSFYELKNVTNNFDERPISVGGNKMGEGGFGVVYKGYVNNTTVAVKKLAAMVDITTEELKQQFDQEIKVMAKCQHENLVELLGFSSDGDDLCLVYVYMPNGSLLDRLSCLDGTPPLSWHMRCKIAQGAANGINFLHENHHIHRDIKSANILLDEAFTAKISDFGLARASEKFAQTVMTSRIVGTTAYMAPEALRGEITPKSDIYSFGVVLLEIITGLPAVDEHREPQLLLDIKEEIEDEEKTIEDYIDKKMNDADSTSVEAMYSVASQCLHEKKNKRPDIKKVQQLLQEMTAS
Assay: IRAK4 MSD Degradation in OCI-LY10
Assay type: cell-based
Details: OCI-LY10 cells, MSD
Procedure, shortened: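 OCI-LY10 cells exposed to 8-point 1:3 compound series (top 1 to 10 μM) for 4 to 24 h at 37 °C, 5% CO2. Lysate IRAK4 quantified by MSD sandwich immunoassay. DC50 from three-parameter logistic fit, binned A (<0.01 μM) to D (>0.2 μM or not tested).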

[1] = 4 hrs incubation, read-out: IRAK4 degradation in OCI-LY10 at 4 hrs: DC50
[2] = 24 hrs incubation, read-out: IRAK4 degradation in OCI-LY10 at 24 hrs: DC50

| SMILES | DC50 [1] [nM] | DC50 [2] [nM] |
| --- | --- | --- |
| CC(C)Oc1ccn2ncc(C(=O)Nc3cn([C@H]4CC[C@H](CN5CCN(CC#Cc6cccc7c6n(C)c(=O)n7C6CCC(=O)NC6=O)CC5)CC4)nc3C(F)F)c2n1 (stereo partly shown) [I-243] | > 200 | > 200 |
| C[C@H]1CN(C[C@H]2CC[C@H](n3cc(NC(=O)c4cnn5ccc(N6C[C@H]7C[C@@H]6CO7)nc45)c(C(F)F)n3)CC2)CCN1CC#Cc1cccc2c1n(C)c(=O)n2C1CCC(=O)NC1=O (stereo partly shown) [I-9] | 10 to 100 | > 200 |
| Cn1c(=O)n(C2CCC(=O)NC2=O)c2cccc(C#CC[C@H]3CN(Cc4ccc(-n5cc(NC(=O)c6cnn7ccc(N8C[C@H]9C[C@@H]8CO9)nc67)c(C(F)F)n5)cc4)CCO3)c21 (stereo partly shown) [I-380] | > 200 | > 200 |
| Cn1c(=O)n(C2CCC(=O)NC2=O)c2cccc(C#CCOC3CCN(C[C@H]4CC[C@H](c5nc(C(F)F)c(NC(=O)c6cnn7ccc(N8C[C@H]9C[C@@H]8CO9)nc67)o5)CC4)CC3)c21 (stereo partly shown) [I-206] | > 200 | > 200 |
| Cn1c(=O)n(C2CCC(=O)NC2=O)c2cccc(C#CCOC3CCN(C[C@H]4CC[C@H](n5cc(NC(=O)c6cncc(C#N)c6)c(C(F)F)n5)CC4)CC3)c21 (stereo partly shown) [I-264] | > 200 | > 200 |
| CN(C[C@H]1CC[C@H](n2cc(NC(=O)c3cnn4ccc(N5CCO[C@H](C(F)F)C5)nc34)c(C(F)F)n2)CC1)C1CCN(c2cccc3c2n(C)c(=O)n3C2CCC(=O)NC2=O)CC1(F)F (stereo partly shown) [I-536] | > 200 | > 200 |
| COc1cc2nn([C@H]3CC[C@H](CN4CCC5(CC4)CCN(c4cccc(C6CCC(=O)NC6=O)c4)CC5)CC3)cc2cc1NC(=O)c1cncc(C#N)c1 (stereo partly shown) [I-91] | > 200 | 100 to 200 |
| Cn1c(=O)n(C2CCC(=O)NC2=O)c2cccc(C[C@H]3C[C@H](N4CCN(C[C@H]5CC[C@H](n6cc(NC(=O)c7cnn8ccc(N9C[C@H]%10CC9CO%10)nc78)c(C(F)F)n6)CC5)CC4)C3)c21 (stereo partly shown) [I-576] | > 200 | < 10 |
| CN(C[C@H]1CC[C@H](n2cc(NC(=O)c3cnn4cccnc34)c(C(F)F)n2)CC1)C1CCN(c2cccc3c(N4CCC(=O)NC4=O)cncc23)CC1 [I-13] | > 200 | > 200 |
| Cn1c(=O)n(C2CCC(=O)NC2=O)c2cccc(C#CCN3CCN(C[C@H]4CC[C@H](n5cc(NC(=O)c6cnn7ccc(OC8CCCC8)nc67)c(C(F)F)n5)CC4)CC3)c21 (stereo partly shown) [I-245] | > 200 | 10 to 100 |
| Cn1c(=O)n(C2CCC(=O)NC2=O)c2cccc(C3CC(OC4CCN(C[C@H]5CC[C@H](n6cc(NC(=O)c7cnn8ccc(N9C[C@H]%10C[C@@H]9CO%10)nc78)c(C(F)F)n6)CC5)CC4)C3)c21 (stereo partly shown) [I-68] | < 10 | > 200 |
| COc1cc([C@H]2CC[C@H](CN3CCC(OCC#Cc4cccc5c4n(C)c(=O)n5C4CCC(=O)NC4=O)CC3)CC2)ccc1NC(=O)c1cnn2ccc(N3C[C@H]4C[C@@H]3CO4)nc12 (stereo partly shown) [I-184] | > 200 | > 200 |
| Cn1c(=O)n(C2CCC(=O)NC2=O)c2cccc(C#CCc3ccc(CN4CCC(n5cc(NC(=O)c6cnn7ccc(N8CC9C[C@@H]8CO9)nc67)c(C(F)F)n5)CC4)cc3)c21 (stereo partly shown) [I-372] | > 200 | > 200 |
| Cc1ccc(-c2nn([C@H]3CC[C@H](CN4CCC(OCC#Cc5cccc6c5n(C)c(=O)n6C5CCC(=O)NC5=O)CC4)CC3)cc2NC(=O)c2cnn3cccnc23)nc1 (stereo partly shown) [I-170] | > 200 | 10 to 100 |
| Cc1nn([C@H]2CC[C@H](CN3CCC(OCC#Cc4cccc5c4n(C)c(=O)n5C4CCC(=O)NC4=O)CC3)CC2)cc1NC(=O)c1cnn2ccc(N3C[C@H]4C[C@@H]3CO4)nc12 (stereo partly shown) [I-168] | > 200 | > 200 |
| Cn1c(=O)n(C2CCC(=O)NC2=O)c2cccc(C#CCN3CCC(C[C@H]4CC[C@H](n5cc(NC(=O)c6cnn7ccc(N8C[C@H]9C[C@@H]8CO9)nc67)c(C(F)F)n5)CC4)CC3)c21 (stereo partly shown) [I-757] | > 200 | > 200 |
| Cn1c(=O)n(C2CCC(=O)NC2=O)c2cccc(C#CCN3CCN(C[C@H]4CC[C@H](n5cc(NC(=O)c6cncc(C#N)c6)c(C(C)(C)O)n5)CC4)CC3)c21 (stereo partly shown) [I-267] | > 200 | > 200 |
| C[C@H]1CN(c2ccn3ncc(C(=O)Nc4cn([C@H]5CC[C@H](CN6CCN(CC7CN(c8cccc9c8n(C)c(=O)n9C8CCC(=O)NC8=O)C7)CC6)CC5)nc4C(F)F)c3n2)CCO1 (stereo partly shown) [I-674] | > 200 | < 10 |
| Cn1c(=O)n(C2CCC(=O)NC2=O)c2cccc(C#CCOC3CN(C[C@H]4CC[C@H](n5cc(NC(=O)c6cnn7ccc(N8C[C@H]9C[C@@H]8CO9)nc67)c(C(F)F)n5)CC4)C3)c21 (stereo partly shown) [I-600] | > 200 | > 200 |
| Cn1c(=O)n(C2CCC(=O)NC2=O)c2ccnc(N3CCN([C@H]4CCN(C[C@H]5CC[C@H](n6cc(NC(=O)c7cnn8ccc(N9C[C@H]%10C[C@@H]9CO%10)nc78)c(C(F)F)n6)CC5)CC4(F)F)CC3)c21 (stereo partly shown) [I-744] | > 200 | < 10 |
| Cn1c(=O)n(C2CCC(=O)NC2=O)c2cccc(C#CCO[C@@H]3CCCN(C[C@H]4CC[C@H](n5cc(NC(=O)c6cnn7ccc(N8C[C@H]9C[C@@H]8CO9)nc67)c(C(F)F)n5)CC4)C3)c21 (stereo partly shown) [I-127] | 100 to 200 | > 200 |

Further lines, results first:

| DC50 [1] [nM] | DC50 [2] [nM] | SMILES |
| --- | --- | --- |
| > 200 | > 200 | COc1nc(NC(=O)c2cccc(C)n2)cc2cn([C@H]3CC[C@H](CN4CCC(c5cccc6c5n(C)c(=O)n6C5CCC(=O)NC5=O)C(F)(F)C4)CC3)nc12 (stereo partly shown) [I-770] |
| > 200 | < 10 | Cn1c(=O)n(C2CCC(=O)NC2=O)c2cccc(N3CCN(C[C@]4(O)CC[C@@H](n5cc6cc(NC(=O)c7cccc(C(F)(F)F)n7)ncc6n5)CC4)CC3)c21 (stereo partly shown) [I-677] |
| > 200 | > 200 | Cn1c(=O)n(C2CCC(=O)NC2=O)c2cccc(N3CCC(N4CC5(CCC(n6cc7cc(NC(=O)c8cccc(C(F)(F)F)n8)c(C#N)cc7n6)CC5)C4)C(F)(F)C3)c21 (stereo not shown) [I-566] |
| > 200 | 10 to 100 | Cn1c(=O)n(C2CCC(=O)NC2=O)c2cccc(C3CCN(C[C@H]4CC[C@H](n5cc6cc(NC(=O)c7cccc(C(F)(F)F)n7)ccc6n5)CC4)CC3(F)F)c21 (stereo partly shown) [I-708] |
| < 10 | > 200 | COc1cc2nn([C@H]3CC[C@H](CN4CCC5(CC4)CCN(c4cccc6c4n(C)c(=O)n6C4CCC(=O)NC4=O)CC5)CC3)cc2cc1NC(=O)c1cncc(C(F)(F)F)n1 (stereo partly shown) [I-155] |
| > 200 | > 200 | CN(C[C@H]1CC[C@H](n2cc3cc(NC(=O)c4cccc(C(F)(F)F)n4)c(S(C)(=O)=O)cc3n2)CC1)C1CCN(c2cccc3c2n(C)c(=O)n3C2CCC(=O)NC2=O)CC1F (stereo partly shown) [I-559] |
| > 200 | > 200 | COc1cc2nn([C@H]3CC[C@H](CN4CCC(c5ccc6c(c5)n(C)c(=O)n6C5CCC(=O)NC5=O)C(F)(F)C4)CC3)cc2cc1NC(=O)c1cccc(C(F)(F)F)n1 (stereo partly shown) [I-463] |
| > 200 | > 200 | Cn1c(=O)n(C2CCC(=O)NC2=O)c2cccc(N3CC(F)(CN(C)[C@H]4CC[C@H](n5cc6cc(NC(=O)c7cccc(C(F)(F)F)n7)ncc6n5)CC4)C3)c21 (stereo partly shown) [I-789] |
| > 200 | > 200 | CO[C@@H]1CN(c2cccc3c2n(C)c(=O)n3C2CCC(=O)NC2=O)C[C@H]1N(C)C[C@H]1CC[C@H](n2cc3cc(NC(=O)c4cccc(C(F)(F)F)n4)ccc3n2)CC1 (stereo partly shown) [I-494] |
| > 200 | > 200 | Cn1c(=O)n(C2CCC(=O)NC2=O)c2cccc(N3CCC(O[C@H]4CC[C@H](n5cc6cc(NC(=O)c7cccc(C(F)(F)F)n7)ncc6n5)CC4)CC3)c21 (stereo partly shown) [I-791] |
| > 200 | < 10 | Cn1c(=O)n(C2CCC(=O)NC2=O)c2cccc(C3CCN(C[C@H]4CC[C@H](n5cc6cc(NC(=O)c7cccc(C(F)F)n7)ncc6n5)CC4)CC3(F)F)c21 (stereo partly shown) [I-616] |
| > 200 | > 200 | CN(C[C@H]1CC[C@H](n2cc(NC(=O)c3cnn4ccc(N5C[C@H]6C[C@@H]5CO6)nc34)c(C(F)F)n2)CC1)C1CCN(c2cccc3c2n(C)c(=O)n3C2CCC(=O)NC2=O)CC1(F)F (stereo partly shown) [I-502] |
| > 200 | < 10 | CN(C[C@H]1CC[C@H](n2cc(NC(=O)c3cnn4ccc(N5CC6(CC6)C5)nc34)c(C(F)F)n2)CC1)C1CCN(c2cccc3c2n(C)c(=O)n3C2CCC(=O)NC2=O)CC1 (stereo partly shown) [I-274] |
| > 200 | < 10 | CN(C[C@H]1CC[C@H](n2cc(NC(=O)c3cnn4ccc(N5CC(F)(F)C5)nc34)c(C(F)F)n2)CC1)C1CCN(c2cccc3c2n(C)c(=O)n3C2CCC(=O)NC2=O)CC1 (stereo partly shown) [I-276] |
| > 200 | > 200 | Cc1cccc(C(=O)Nc2cc3cn([C@H]4CC[C@H](CN5CCC(c6cccc7c6n(C)c(=O)n7C6CCC(=O)NC6=O)C(F)(F)C5)CC4)nc3c(=O)n2C)n1 (stereo partly shown) [I-772] |
| > 200 | 10 to 100 | Cn1c(=O)n(C2CCC(=O)NC2=O)c2cccc(C3=CCN(C[C@H]4CC[C@H](n5cc6cc(NC(=O)c7cccc(C(F)(F)F)n7)ccc6n5)CC4)CC3F)c21 (stereo partly shown) [I-706] |
| > 200 | > 200 | CN(C[C@H]1CC[C@H](n2cc3cc(NC(=O)c4cccc(C(F)(F)F)n4)c(C#N)cc3n2)CC1)C1CCN(c2cccc3c2n(C)c(=O)n3C2CCC(=O)NC2=O)CC1(F)F (stereo partly shown) [I-477] |
